Literature values in patent US7904011B2, “Temperature control unit and image forming apparatus including same” (Ricoh Company, Ltd., priority 2007, dated 2011).

Settings: in vivo

First: CCOCCOC(=O)CCC(=O)OCCOCC [diethoxyethyl succinate]
Second: CC1COC(=O)O1 (stereo not drawn) [propylene carbonate]
The “acute oral toxicity LD50” value of the first is 5.8-fold lower: 5000 mg/kg for the first, 29000 mg/kg for the second.

In the case of [Cl-].[Na+] [salt, reference compound], the “acute oral toxicity LD50” value is listed as 3000 mg/kg.
